Test results published in patent US8765723B2, “Analogues of cilostazol” (CoNCERT Pharmaceuticals Inc., priority 2007, dated 2014).
Like-named read-outs stand apart in the source and are kept apart here.

Assay: Determination of metabolic stability in human liver microsomes
Assay type: in vitro ADME
Details: for half-life at 1 μM: pH 7.4, read-out: In vitro half-life t1/2 in human liver microsomes; for half-life at 1 μM / In vitro half-life t1/2 in human liver microsomes: 0.5 mg/mL human liver microsomes, 1 μM test compound, 2 mM NADPH, 37° C., 0-30 minutes; for stabilization in comparison to undeuterated counterpart (in words): repeated experiment, Table 4, vs cilostazol (106, 100) or dehydrocilostazol (110)
Description: Human liver microsomes (20 mg/mL) were obtained from Xenotech, LLC (Lenexa, Kans.). β-nicotinamide adenine dinucleotide phosphate, reduced form (NADPH), magnesium chloride (MgCl2), and dimethyl sulfoxide (DMSO) were purchased from Sigma-Aldrich.
7.5 mM stock solutions of test compounds, as well as cilostazol and 7-ethoxycoumarin (as a positive control) were prepared in DMSO. The 7.5 mM stock solutions were diluted to 50 μM in acetonitrile (ACN). The 20 mg/mL human liver microsomes were diluted to 0.625 mg/mL in 0.1 M potassium phosphate buffer, pH 7.4, containing 3 mM MgCl2. The diluted microsomes were added to wells of a 96-well deep-well polypropylene plate in triplicate. Ten μL of the 50 μM test compound was added to the microsomes and the mixture was pre-warmed for 10 minutes. Reactions were initiated by addition of pre-warmed NADPH solution. The final reaction volume was 0.5 mL and contained 0.5 mg/mL human liver microsomes, 1 μM test compound, and 2 mM NADPH in 0.1 M potassium phosphate buffer, pH 7.4, and 3 mM MgCl2. The reaction mixtures were incubated at 37° C., and 50 μL aliquots were removed at 0, 5, 10, 20, and 30 minutes and added to shallow-well 96-well plates which contained 50 μL of ice-cold ACN with internal standard to stop the reactions. The plates were stored at 4° C. for 20 minutes after which 100 μL of water was added to the wells of the plate before centrifugation to pellet precipitated proteins. Supernatants were transferred to another 96-well plate and analyzed for amounts of parent remaining by LC-MS/MS using an Applied Bio-systems API 4000 mass spectrometer.
The in vitro t1/2s for test compounds were calculated from the slopes of the linear regression of % parent remaining (ln) vs incubation time relationship: in vitro t1/2=0.693/k, where k=−[slope of linear regression of % parent remaining(ln) vs incubation time]. Data analysis was performed using Microsoft Excel Software.

SMILES | half-life at 1 μM (first experiment (Table 3)) [h] | In vitro half-life t1/2 in human liver microsomes (repeated experiment (Table 4)) | half-life at 1 μM (repeated experiment (Table 4)) [h] | stabilization in comparison to undeuterated counterpart (in words) | also measured
O=C1CCc2cc(OCCCCc3nnnn3C3CCCCC3)ccc2N1 [Cilostazol, 6-[4-(1-Cyclohexyl-1H-tetrazol-5-yl)butoxy]-3,4-dihydro-2(1H)-quinolinone] | 0.78 | 1.03 h |  |  | 
O=c1ccc2cc(OCCCCc3nnnn3C3CCCCC3)ccc2[nH]1 [Dehydrocilostazol, reference compound] |  |  | 1.31 |  | 
[2H]C1([2H])CC(n2nnnc2CCCCOc2ccc3c(c2)CCC(=O)N3)CC([2H])([2H])C1([2H])[2H] [Compound 112, 6-(4-(1-(3,3,4,4,5,5-d6-Cyclohexyl)-1H-tetrazol-5-yl)butoxy)-3,4-dihydroquinolin-2(1H)-one] |  |  | 1.32 |  | 
[2H]C1([2H])CCC(n2nnnc2CCCCOc2ccc3c(c2)C([2H])([2H])C([2H])([2H])C(=O)N3)CC1 [Compound 101, 6-(4-(1-(4,4-d2-Cyclohexyl)-1H-tetrazol-5-yl)butoxy)-3,3,4,4-d4-dihydroquinolin-2(1H)-one] | 0.753 |  |  |  | 
[2H]C1([2H])C([2H])([2H])C([2H])([2H])C([2H])(n2nnnc2CCCCOc2ccc3c(c2)CCC(=O)N3)C([2H])([2H])C1([2H])[2H] [Compound 106, 6-(4-(1-(Cyclohexyl-d11)-1H-tetrazol-5-yl)butoxy)-3,4-dihydroquinolin-2(1H)-one] | 1.32 | 1.45 h |  | stabilized | 
[2H]C1([2H])CC(n2nnnc2CCCCOc2ccc3[nH]c(=O)ccc3c2)CC([2H])([2H])C1([2H])[2H] [Compound 113, 6-(4-(1-(3,3,4,4,5,5-d6-Cyclohexyl)-1H-tetrazol-5-yl)butoxy)-3,4-dihydroquinolin-2(1H)-one] |  |  | 1.49 |  | 
[2H]C1([2H])CCC(n2nnnc2CCCCOc2ccc3c(c2)CCC(=O)N3)CC1 [Compound 107, 6-(4-(1-(4,4-d2-Cyclohexyl)-1H-tetrazol-5-yl)butoxy)-3,4-dihydroquinolin-2(1H)-one] | 0.595 |  |  |  | 
[2H]C1([2H])C([2H])([2H])C([2H])([2H])C([2H])(n2nnnc2CCCCOc2ccc3[nH]c(=O)ccc3c2)C([2H])([2H])C1([2H])[2H] [Compound 110] | 1.24 | Stable* |  | stabilized | 
[2H]C1([2H])C(=O)Nc2ccc(OCCCCc3nnnn3C3([2H])C([2H])([2H])C([2H])([2H])C([2H])([2H])C([2H])([2H])C3([2H])[2H])cc2C1([2H])[2H] [Compound 100, 6-(4-(1-(Cyclohexyl-d11)-1H-tetrazol-5-yl)butoxy)-3,3,4,4-d4-dihydroquinolin-2(1H)-one] |  | 1.64 h |  | stabilized | In vitro half-life t1/2 in human liver microsomes (first experiment (Table 3)): 0.695 h; stabilization in human liver microsomes (in words) (previous (first) experiment, Table 3): no stabilization
